Data reported in US11365187B2, “Pesticidally active pyrazole derivatives” (SYNGENTA PARTICIPATIONS AG, priority 2017, dated 2022).
Where two headings read alike, the source gives them in different places.

Tests used:
Format in all cases: in vivo
[1] = tested on: Myzus persicae (Green peach aphid); experiment: Myzus persicae feeding/contact activity on sunflower leaf discs; settings: foliar, 144 h
Procedure: Myzus persicae (Green peach aphid): Feeding/Contact activity
Sunflower leaf discs were placed onto agar in a 24-well microtiter plate and sprayed with aqueous test solutions prepared from 10′000 ppm DMSO stock solutions. After drying, the leaf discs were infested with an aphid population of mixed ages. The samples were assessed for mortality 6 days after infestation.

[2] = tested on: Tetranychus urticae (Two-spotted spider mite); experiment: Tetranychus urticae feeding/contact activity on bean leaf discs; settings: foliar, 192 h, read-out: mortality on mixed population (mobile stages)
Procedure: Tetranychus urticae (Two-spotted spider mite): Feeding/contact activity
Bean leaf discs on agar in 24-well microtiter plates were sprayed with aqueous test solutions prepared from 10′000 ppm DMSO stock solutions. After drying the leaf discs were infested with a mite population of mixed ages. The samples were assessed for mortality on mixed population (mobile stages) 8 days after infestation.

[3] = tested on: Plutella xylostella (Diamond back moth); experiment: Plutella xylostella feeding/contact activity on artificial diet; settings: 120 h
Procedure: Plutella xylostella (Diamond back moth): Feeding/contact activity
24-well microtiter plates with artificial diet were treated with aqueous test solutions prepared from 10′000 ppm DMSO stock solutions by pipetting. After drying, the plates were infested with L2 larvae (10 to 15 per well). The samples were assessed for mortality 5 days after infestation.

[4] = tested on: Euschistus heros (Neotropical Brown Stink Bug); experiment: Euschistus heros feeding/contact activity on soybean leaves; settings: 120 h
Procedure: Euschistus heros (Neotropical Brown Stink Bug): Feeding/contact activity
Soybean leaves on agar in 24-well microtiter plates were sprayed with aqueous test solutions prepared from 10′000 ppm DMSO stock solutions. After drying the leaves were infested with N2 nymphs. The samples were assessed for mortality 5 days after infestation.

[5] = tested on: Spodoptera littoralis (Egyptian cotton leaf worm); experiment: Spodoptera littoralis feeding/contact activity on cotton leaf discs; settings: foliar, 72 h
Procedure: Spodoptera littoralis (Egyptian cotton leaf worm): Feeding/contact activity
Cotton leaf discs were placed onto agar in 24-well microtiter plates and sprayed with aqueous test solutions prepared from 10′000 ppm DMSO stock solutions. After drying the leaf discs were infested with five L1 larvae. The samples were assessed for mortality 3 days after infestation. […] 2, 3, 4, 5, 6, 7, 8, 9, 10, 11, 12, 13, 14, 15, 16, 17, 18, 19, 20, 21, 22, 23, 24, 25, 26, 27, 28 and 29.

[6] = tested on: Thrips tabaci (Onion thrips); experiment: Thrips tabaci feeding/contact activity on sunflower leaf discs; settings: foliar, 144 h, application rate 200 ppm, thrips population of mixed ages, assessed 6 days after infestation, read-out: mortality
Procedure: Thrips tabaci (Onion thrips): Feeding/Contact activity
Sunflower leaf discs were placed on agar in 24-well microtiter plates and sprayed with aqueous test solutions prepared from 10′000 ppm DMSO stock solutions. After drying the leaf discs were infested with a thrips population of mixed ages. The samples were assessed for mortality 6 days after infestation.

[7] = tested on: Diabrotica balteata (Corn root worm); experiment: Diabrotica balteata (Corn root worm) mortality on sprayed maize sprouts; settings: 96 h, application rate 200 ppm, L2 larvae, assessed 4 days after infestation, read-out: mortality
Procedure: Diabrotica balteata (Corn root worm):
Maize sprouts placed onto an agar layer in 24-well microtiter plates were treated with aqueous test solutions prepared from 10′000 ppm DMSO stock solutions by spraying. After drying, the plates were infested with L2 larvae (6 to 10 per well). The samples were assessed for mortality 4 days after infestation.

[8] = application rate 200 ppm, aphid population of mixed ages, assessed 6 days after infestation, read-out: mortality
[9] = application rate 200 ppm, mite population of mixed ages, assessed 8 days after infestation
[10] = application rate 200 ppm, L2 larvae, assessed 5 days after infestation, read-out: mortality
[11] = application rate 200 ppm, N2 nymphs, assessed 5 days after infestation, read-out: mortality
[12] = application rate 200 ppm, L1 larvae, assessed 3 days after infestation, read-out: mortality

Measured: mortality at 200 ppm

Cn1nc(C(F)(C(F)(F)F)C(F)(F)F)c(OC(F)F)c1-n1cc(-c2ccc(Cl)c(C(=O)NC3(C#N)CC3)c2)cn1 [Example 1, 2-Chloro-N-(1-cyanocyclopropyl)-5-[1-[4-(difluoromethoxy)-2-methyl-5-[1,2,2,2-tetrafluoro-1-(trifluoromethyl)ethyl]pyrazol-3-yl]pyrazol-4-yl]benzamide]
≥ 80%: [1]; [8] | [2]; [9] | [3]; [10] | [4]; [11] | [5]; [12] | [6] | [7]

CCOC(=O)N(C(=O)c1cc(-c2cnn(-c3c(OC(F)F)c(C(F)(C(F)(F)F)C(F)(F)F)nn3C)c2)ccc1Cl)C1CC1 [Example 15, ethyl N-[2-chloro-5-[1-[4-(difluoromethoxy)-2-methyl-5-[1,2,2,2-tetrafluoro-1-(trifluoromethyl)ethyl]pyrazol-3-yl]pyrazol-4-yl]benzoyl]-N-cyclopropyl-carbamate]
≥ 80%: [1] | [2] | [3] | [4] | [5]

Cn1nc(C(F)(C(F)(F)F)C(F)(F)F)c(OC(F)F)c1-n1cc(-c2ccc(Cl)c(C(=O)N(CC#N)C3CC3)c2)cn1 [Example 16, 2-chloro-N-(cyanomethyl)-N-cyclopropyl-5-[1-[4-(difluoromethoxy)-2-methyl-5-[1,2,2,2-tetrafluoro-1-(trifluoromethyl)ethyl]pyrazol-3-yl]pyrazol-4-yl]benzamide]
≥ 80%: [1]; [8] | [2]; [9] | [3]; [10] | [4]; [11] | [5]; [12]

Cn1nc(C(F)(C(F)(F)F)C(F)(F)F)c(OC(F)F)c1-n1cc(-c2ccc(Cl)c(C(=O)NC3CC3)c2)cn1 [Example 17, 2-chloro-N-cyclopropyl-5-[1-[4-(difluoromethoxy)-2-methyl-5-[1,2,2,2-tetrafluoro-1-(trifluoromethyl)ethyl]pyrazol-3-yl]pyrazol-4-yl]benzamide]
≥ 80%: [1]; [8] | [2]; [9] | [3]; [10] | [4]; [11] | [5]; [12]

COCC(=O)N(C(=O)c1cc(-c2cnn(-c3c(OC(F)F)c(C(F)(C(F)(F)F)C(F)(F)F)nn3C)c2)ccc1Cl)C1CC1 [Example 22, 2-chloro-N-cyclopropyl-5-[1-[-4-(difluoromethoxy)-2-methyl-5-[1,2,2,2-tetrafluoro-1-(trifluoromethyl)ethyl]pyrazol-3-yl]pyrazol-4-yl]-N-(2-methoxyacetyl)benzamide]
≥ 80%: [1]; [8] | [2]; [9] | [3]; [10] | [4]; [11] | [5]; [12]

COC(=O)N(C(=O)c1cc(-c2cnn(-c3c(OC(F)F)c(C(F)(C(F)(F)F)C(F)(F)F)nn3C)c2)ccc1Cl)C1CC1 [Example 23, methyl N-[2-chloro-5-[1-[4-(difluoromethoxy)-2-methyl-5-[1,2,2,2-tetrafluoro-1-(trifluoromethyl)ethyl]pyrazol-3-yl]pyrazol-4-yl]benzoyl]-N-cyclopropyl-carbamate]
≥ 80%: [1] | [2] | [3] | [4] | [5]

CC(C)OC(=O)N(C(=O)c1cc(-c2cnn(-c3c(OC(F)F)c(C(F)(C(F)(F)F)C(F)(F)F)nn3C)c2)ccc1Cl)C1CC1 [Example 24, isopropyl N-[2-chloro-5-[1-[4-(difluoromethoxy)-2-methyl-5-[1,2,2,2-tetrafluoro-1-(trifluoromethyl)ethyl]pyrazol-3-yl]pyrazol-4-yl]benzoyl]-N-cyclopropyl-carbamate]
≥ 80%: [1] | [2] | [3] | [4] | [5]

CN(C(=O)c1cc(-c2cnn(-c3c(OC(F)F)c(C(F)(C(F)(F)F)C(F)(F)F)nn3C)c2)ccc1Cl)C1CC1 [Example 25, 2-chloro-N-cyclopropyl-5-[1-[4-(difluoromethoxy)-2-methyl-5-[1,2,2,2-tetrafluoro-1-(trifluoromethyl)ethyl]pyrazol-3-yl]pyrazol-4-yl]-N-methyl-benzamide]
≥ 80%: [1]; [8] | [2]; [9] | [3]; [10] | [4]; [11] | [5]; [12]

CCN(C(=O)c1cc(-c2cnn(-c3c(OC(F)F)c(C(F)(C(F)(F)F)C(F)(F)F)nn3C)c2)ccc1Cl)C1CC1 [Example 26, 2-chloro-N-cyclopropyl-5-[1-[4-(difluoromethoxy)-2-methyl-5-[1,2,2,2-tetrafluoro-1-(trifluoromethyl)ethyl]pyrazol-3-yl]pyrazol-4-yl]-N-ethyl-benzamide]
≥ 80%: [1]; [8] | [2]; [9] | [3]; [10] | [4]; [11] | [5]; [12]

CCOCN(C(=O)c1cc(-c2cnn(-c3c(OC(F)F)c(C(F)(C(F)(F)F)C(F)(F)F)nn3C)c2)ccc1Cl)C1CC1 [Example 27, 2-chloro-N-cyclopropyl-5-[1-[4-(difluoromethoxy)-2-methyl-5-[1,2,2,2-tetrafluoro-1-(trifluoromethyl)ethyl]pyrazol-3-yl]pyrazol-4-yl]-N-(ethoxymethyl)benzamide]
≥ 80%: [1]; [8] | [2]; [9] | [3]; [10] | [4]; [11] | [5]; [12]

COCN(C(=O)c1cc(-c2cnn(-c3c(OC(F)F)c(C(F)(C(F)(F)F)C(F)(F)F)nn3C)c2)ccc1Cl)C1CC1 [Example 28, 2-chloro-N-cyclopropyl-5-[1-[4-(difluoromethoxy)-2-methyl-5-[1,2,2,2-tetrafluoro-1-(trifluoromethyl)ethyl]pyrazol-3-yl]pyrazol-4-yl]-N-(methoxymethyl)benzamide]
≥ 80%: [1]; [8] | [2]; [9] | [3]; [10] | [4]; [11] | [5]; [12]

Cn1nc(C(F)(C(F)(F)F)C(F)(F)F)c(OC(F)F)c1-n1cc(-c2ccc(Cl)c(C(=O)N(C(=O)OCCl)C3(C#N)CC3)c2)cn1 [Example 29, chloromethyl N-[2-chloro-5-[1-[4-(difluoromethoxy)-2-methyl-5-[1,2,2,2-tetrafluoro-1-(trifluoromethyl)ethyl]pyrazol-3-yl]pyrazol-4-yl]benzoyl]-N-(1-cyanocyclopropyl)carbamate]
≥ 80%: [1] | [2] | [3] | [4] | [5]
